From US20180206499A1, “METHOD OF IMPROVING PLANT HEALTH AND ROOTING OF PLANTS” (Bayer CropScience LP, priority 2017, published 2018)

Legend:
Type in all cases: in vivo
Loblolly pine (P. taeda) = assay: Pinus taeda seed pot test, soil sprayed with indaziflam composition; conditions: Esplanade 200SC soil spray; for root weight: untreated root approx. 0.06 grams; for shoot weight: untreated shoot approx. 0.19 grams
Protocol: Loblolly pine (P. taeda) seeds were soaked in water for 24 hours and then placed in cold storage in a punctured bag for four weeks.
(§1) 20 seeds were placed in pots on soil surface and topdressed with one cup of sandy loam soil, about ⅛″ to ¼″ deep. The pots were irrigated and allowed to settle for 24 hours.
(§2) The soil was sprayed with a commercially available composition comprising indaziflam (commercial name Esplanade 200SC) using a single nozzle with a compressed CO2 backpack set at 32 psi for 25 gallons per acre. Overhead irrigation was set for twice daily.

[1] = test system: Virginia pine (P. virginiana); assay: Pinus virginiana seed pot test, soil sprayed with indaziflam composition; conditions: Esplanade 200SC soil spray; for root weight: untreated root approx. 0.05 grams; for shoot weight: untreated shoot approx. 0.11 grams
Protocol: Virginia pine (P. virginiana) seeds were soaked in water for 24 hours and then placed in cold storage in a punctured bag for four weeks.
as §1, §2

[2] = test system: Shortleaf pine (P. echinata); assay: Pinus echinata seed pot test, soil sprayed with indaziflam composition; conditions: soil spray; for root weight: untreated root approx. 0.05 grams; for shoot weight: untreated shoot approx. 0.10 grams
Protocol: Shortleaf pine (P. echinata) seeds were soaked in water for 24 hours and then placed in cold storage in a punctured bag for four weeks.
as §1
The soil was sprayed with a commercially available composition comprising indaziflam (commercial name […]) using a single nozzle with a compressed CO2 backpack set at 32 psi for 25 gallons per acre. Overhead irrigation was set for twice daily.

Which root weight (Loblolly pine (P. taeda); 50 g indaziflam per hectare) does the source give for `Cc1ccc2c(c1)[C@H](Nc1nc(N)nc(C(C)F)n1)[C@@H](C)C2` (mixture of isomers) [indaziflam, N2[(1R,2S)-2,3-dihydro-2,6-dimethyl-1H-inden-1-yl]-6-[(1RS)-1-fluoroethyl]-1,3,5-triazine-2,4-diamine] here?
Its root weight is “approximately 0.15 grams”.

And the shoot weight (Loblolly pine (P. taeda); 50 g indaziflam per hectare)?
The shoot weight was “approximately 0.30 grams”.

What about the root weight (Loblolly pine (P. taeda); 71.4 g indaziflam per hectare) of the same compound?
The root weight was “approximately 0.25 grams”.

And the shoot weight (Loblolly pine (P. taeda); 71.4 g indaziflam per hectare)?
The shoot weight was “approximately 0.50 grams”.

And the root weight (Loblolly pine (P. taeda); 100 g indaziflam per hectare)?
Its root weight is “approximately 0.14 grams”.

What about the shoot weight (Loblolly pine (P. taeda); 100 g indaziflam per hectare) of the same compound?
Its shoot weight is “approximately 0.22 grams”.

What about the root weight ([1]; 50 g indaziflam per hectare) of the same compound?
The root weight was “approximately 0.14 grams”.

And the shoot weight ([1]; 50 g indaziflam per hectare)?
The shoot weight was “approximately 0.23 grams”.

And the root weight ([1]; 71.4 g indaziflam per hectare)?
The root weight was “approximately 0.27 grams”.

And the shoot weight ([1]; 71.4 g indaziflam per hectare)?
The shoot weight was “approximately 0.41 grams”.

What about the root weight ([1]; 100 g indaziflam per hectare) of the same compound?
Its root weight is “approximately 0.22 grams”.

What about the root weight ([2]; 50 g indaziflam per hectare) of the same compound?
Its root weight is “approximately 0.13 grams”.

What about the shoot weight ([2]; 50 g indaziflam per hectare) of the same compound?
Its shoot weight is “approximately 0.34 grams”.

What about the root weight ([2]; 71.4 g indaziflam per hectare) of the same compound?
Its root weight is “approximately 0.27 grams”.

And the shoot weight ([2]; 71.4 g indaziflam per hectare)?
Its shoot weight is “approximately 0.40 grams”.

And the root weight ([2]; 100 g indaziflam per hectare)?
The root weight was “approximately 0.22 grams”.

What about the shoot weight ([2]; 100 g indaziflam per hectare) of the same compound?
Its shoot weight is “approximately 0.24 grams”.
